Data reported in patent US12501900B2, “Heterocyclyl pyridazine as fungicidal compounds” (Bayer Aktiengesellschaft, priority 2018, dated 2025).

What was measured:
[1] = Measurement of LogP values by HPLC on reversed phase columns (EEC directive 79/831 Annex V.A8), methods [a], [b], [c]; assay type: physicochemical; settings: HPLC on reversed phase column, method [a]; read-out: Log P
Experimental: Measurement of Log P values as provided herein was performed according to EEC directive 79/831 Annex V.A8 by HPLC (High Performance Liquid Chromatography) on reversed phase columns with the following methods: • ^[a]
If more than one Log P value is available within the same method, all the values are given and separated by “+”.
Lambda-max-values were determined using UV-spectra from 200 nm to 400 nm and the peak values of the chromatographic signals

Alternaria brassicae = experiment: In vivo preventive test on Alternaria brassicae (leaf spot on radish or cabbage); settings: 144 h, 500 ppm of active ingredient, preventive spray on radish or cabbage, evaluated 6 days after inoculation, read-out: efficacy
Experimental: Example: In Vivo Preventive Test on Alternaria brassicae (Leaf Spot on Radish or Cabbage)
(§1) • Solvent: 5% by volume of Dimethyl sulfoxide • 10% by volume of Acetone • Emulsifier: 1 μl of Tween® 80 per mg of active ingredient
(§2) The active ingredients were made soluble and homogenized in a mixture of Dimethyl sulfoxide/Acetone//Tween®80 and then diluted in water to the desired concentration.
The young plants of radish or cabbage were treated by spraying the active ingredient prepared as described above. Control plants were treated only with an aqueous solution of Acetone/Dimethyl sulfoxide/Tween® 80.
After 24 hours, the plants were contaminated by spraying the leaves with an aqueous suspension of Alternaria brassicae spores. The contaminated radish or cabbage plants were incubated for 6 days at 20° C. and at 100% relative humidity.
The test was evaluated 6 days after the inoculation. 0% means an efficacy which corresponds to that of the control plants while an efficacy of 100% means that no disease was observed.

Botrytis cinerea = experiment: In vivo preventive test on Botrytis cinerea (grey mould); settings: 500 ppm of active ingredient, preventive spray on gherkin or cabbage, evaluated 4 to 5 days after inoculation, read-out: efficacy
Experimental: Example: In Vivo Preventive Test on Botrytis cinerea (Grey Mould)
as §1, §2
The young plants of gherkin or cabbage were treated by spraying the active ingredient prepared as described above. Control plants were treated only with an aqueous solution of Acetone/Dimethyl sulfoxide/Tween® 80.
After 24 hours, the plants were contaminated by spraying the leaves with an aqueous suspension of Botrytis cinerea spores. The contaminated gherkin plants were incubated for 4 to 5 days at 17° C. and at 90% relative humidity. The contaminated cabbage plants were incubated for 4 to 5 days at 20° C. and at 100% relative humidity.
The test was evaluated 4 to 5 days after the inoculation. 0% means an efficacy which corresponds to that of the control plants while an efficacy of 100% means that no disease was observed.

Pyrenophora teres = experiment: In vivo preventive test on Pyrenophora teres (net blotch on barley); settings: 240 h, 500 ppm of active ingredient, preventive spray on barley, evaluated 10 days after inoculation, read-out: efficacy
Experimental: Example: In Vivo Preventive Test on Pyrenophora teres (Net Blotch on Barley)
as §1, §2
The young plants of barley were treated by spraying the active ingredient prepared as described above. Control plants were treated only with an aqueous solution of Acetone/Dimethyl sulfoxide/Tween®80.
After 24 hours, the plants were contaminated by spraying the leaves with an aqueous suspension of Pyrenophora teres spores. The contaminated barley plants were incubated for 48 hours at 20° C. and at 100% relative humidity and then for 8 days at 20° C. and at 70-80% relative humidity.
The test was evaluated 10 days after the inoculation. 0% means an efficacy which corresponds to that of the control plants while an efficacy of 100% means that no disease was observed.

Sphaerotheca fuliginea = experiment: In vivo preventive test on Sphaerotheca fuliginea (powdery mildew on cucurbits); settings: Podosphaera fuliginea, 192 h; 500 ppm of active ingredient; preventive spray on gherkin; evaluated 8 days after inoculation; read-out: efficacy
Experimental: Example: In Vivo Preventive Test on Sphaerotheca fuliginea (Powdery Mildew on Cucurbits)
as §1, §2
The young plants of gherkin were treated by spraying the active ingredient prepared as described above. Control plants were treated only with an aqueous solution of Acetone/Dimethyl sulfoxide/Tween® 80.
After 24 hours, the plants were contaminated by spraying the leaves with an aqueous suspension of Sphaerotheca fuliginea spores. The contaminated gherkin plants were incubated for 8 days at 20° C. and at 70-80% relative humidity.
The test was evaluated 8 days after the inoculation. 0% means an efficacy which corresponds to that of the control plants while an efficacy of 100% means that no disease was observed.

[2] = system: Colletotrichum lindemuthianum; experiment: In vivo preventive test on Colletotrichum lindemuthianum (leaf spot on bean); settings: 168 h, 500 ppm of active ingredient, preventive spray on bean, evaluated 7 days after inoculation, read-out: efficacy
Experimental: Example: In Vivo Preventive Test on Colletotrichum lindemuthianum (Leaf Spot on Bean)
as §1, §2
The young plants of bean were treated by spraying the active ingredient prepared as described above. Control plants were treated only with an aqueous solution of Acetone/Dimethyl sulfoxide/Tween® 80.
After 24 hours, the plants were contaminated by spraying the leaves with an aqueous suspension of Colletotrichum lindemuthianum spores. The contaminated bean plants were incubated for 24 hours at 20° C. and at 100% relative humidity and then for 6 days at 20° C. and at 90% relative humidity.
The test was evaluated 7 days after the inoculation. 0% means an efficacy which corresponds to that of the control plants while an efficacy of 100% means that no disease was observed.

Alternaria alternata = Alternaria alternata in vitro cell test; assay type: cell-based; settings: 120 h, 20 ppm of active ingredient, liquid culture, 5 days incubation, read-out: efficacy (inhibition of fungal growth)
Experimental: (§3) Example: Alternaria alternata In Vitro Cell Test • Solvent: DMSO • Culture medium: 14.6 g anhydrous D-glucose (VWR), 7.1 g Mycological Peptone (Oxoid), 1.4 g granulated Yeast Extract (Merck), QSP 1 liter • Inoculum: spores suspension Fungicides were solubilized in DMSO and the solution used to prepare the required range of concentrations. The final concentration of DMSO used in the assay was ≤1%. A spore suspension of A. alternata was prepared and diluted to the desired spore density. Fungicides were evaluated for their ability to inhibit spore germination and mycelium growth in liquid culture assay. The compounds were added in the desired concentration to the culture medium with spores. After 5 days incubation, fungi-toxicity of compounds was determined by spectrometric measurement of mycelium growth. Inhibition of fungal growth was determined by comparing the absorbance values in wells containing the fungicides with the absorbance in control wells without fungicides.

[3] = system: Colletotrichum lindemuthianum; experiment: Colletotrichum lindemuthianum in vitro cell test; assay type: cell-based; settings: 144 h, 20 ppm of active ingredient, liquid culture, 6 days incubation, read-out: efficacy (inhibition of fungal growth)
Experimental: as §3, with “Example: Colletotrichum lindemuthianum” for “Example: Alternaria alternata”, “of C. lindemuthianum” for “of A. alternata”, “inhibit spores” for “inhibit spore”, “After 6” for “After 5”

Compound	chromatographic logP [1]	pest or weed control at 500 ppm (Alternaria brassicae) [%]	pest or weed control at 500 ppm (Botrytis cinerea) [%]	pest or weed control at 500 ppm (Pyrenophora teres) [%]	pest or weed control at 500 ppm (Sphaerotheca fuliginea) [%]	pest or weed control at 500 ppm [2] [%]	inhibition at 20 ppm (Alternaria alternata) [%]	inhibition at 20 ppm [3] [%]
Cc1ccc(CC2CNN=C(c3cc(Cl)nnc3Oc3cccc(C(F)(F)F)c3)N2)c(C)c1 (racemic) [I-173, rac-3-[6-chloro-3-[3-(trifluoromethyl)phenoxy]pyridazin-4-yl]-5-[(2,4-dimethylphenyl)methyl]-1,4,5,6-tetrahydro-1,2,4-triazine]	3.31	90 to 100	90 to 100	90 to 100	90 to 100	90 to 100	90 to 100	90 to 100
Cc1ccc(CC2CC(=O)N=C(c3cc(Cl)nnc3Oc3cccc(C4CC4)c3)N2)c(C)c1 (racemic) [I-078, rac-2-[6-chloro-3-(3-cyclopropylphenoxy)pyridazin-4-yl]-6-[(2,4-dimethylphenyl)methyl]-5,6-dihydro-1H-pyrimidin-4-one]	4.31	90 to 100	90 to 100	80 to 89	80 to 89	90 to 100	90 to 100	90 to 100
Cc1ccc(CC2CON=C(c3c(Oc4cccc(C5CC5)c4F)nnc(Cl)c3C)N2)c(C)c1 (racemic) [I-058, rac-3-[6-chloro-3-(3-cyclopropyl-2-fluoro-phenoxy)-5-methyl-pyridazin-4-yl]-5-[(2,4-dimethylphenyl)methyl]-5,6-dihydro-4H-1,2,4-oxadiazine]	4.3	90 to 100	90 to 100	80 to 89	90 to 100	90 to 100	90 to 100	90 to 100
Cc1cc(C2=NOCC(c3ccc(Cl)cc3)N2)c(Oc2cccc(C(F)(F)F)c2)nn1 (racemic) [I-040, rac-5-(4-chlorophenyl)-3-[6-methyl-3-[3-(trifluoro-methyl)phenoxy]pyridazin-4-yl]-5,6-dihydro-4H-1,2,4-oxadiazine]	3.29	90 to 100	90 to 100	80 to 89	80 to 89	90 to 100	90 to 100	90 to 100
Cc1cc(C2=NOCCC(c3ccc4c(ccn4C)c3)N2)c(Oc2cccc(C(F)(F)F)c2)nn1 (racemic) [I-062, rac-5-(1-methylindol-5-yl)-3-[6-methyl-3-[3-(trifluoro-methyl)phenoxy]pyridazin-4-yl]-4,5,6,7-tetrahydro-1,2,4-oxadiazepine]	1.92	90 to 100	90 to 100	–	90 to 100	90 to 100	–	–
Cc1ccc(CC2CON=C(c3c(Oc4cccc(C(F)(F)F)c4)nnc(Cl)c3NC3CC3)N2)c(C)c1 (racemic) [I-041, 3-chloro-N-cyclopropyl-5-[rac-5-[(2,4-dimethylphenyl)methyl]-5,6-dihydro-4H-1,2,4-oxadiazin-3-yl]-6-[3-(trifluoromethyl)phenoxy]pyridazin-4-amine]	4.03	90 to 100	90 to 100	–	90 to 100	–	90 to 100	90 to 100
Cc1ccc(CC2CON=C(c3c(Oc4cccc(C(F)(F)F)c4)nnc(Cl)c3I)N2)c(C)c1 (racemic) [I-065, rac-3-[6-chloro-5-iodo-3-[3-(trifluoromethyl)phenoxy]pyridazin-4-yl]-5-[(2,4-dimethylphenyl)methyl]-5,6-dihydro-4H-1,2,4-oxadiazine]	4.37	90 to 100	–	70 to 79	–	90 to 100	90 to 100	90 to 100
Cc1ccc(OCC2CON=C(c3cc(C)nnc3Oc3cccc(C(F)(F)F)c3)N2)c(C)c1 (racemic) [I-144, rac-5-[(2,4-dimethylphenoxy)methyl]-3-[6-methyl-3-[3-(trifluoromethyl)phenoxy]pyridazin-4-yl]-5,6-dihydro-4H-1,2,4-oxadiazine]	3.98	90 to 100	90 to 100	–	70 to 79	–	90 to 100	90 to 100
COCCSc1nnc(Oc2cccc(C(F)(F)F)c2)c(C2=NOCC(Cc3ccc(C)cc3C)N2)c1C (racemic) [I-187, rac-5-[(2,4-dimethylphenyl)methyl]-3-[6-(2-methoxyethylsulfanyl)-5-methyl-3-[3-(trifluoromethyl)phenoxy]pyridazin-4-yl]-5,6-dihydro-4H-1,2,4-oxadiazine]	4.51	90 to 100	90 to 100	–	90 to 100	–	90 to 100	90 to 100
Cc1ccc(CC2CCN=C(c3cc(Cl)nnc3Oc3cccc(C(F)(F)F)c3)N2)c(C)c1 (racemic) [I-117, 6-chloro-4-[rac-6-[(2,4-dimethylphenyl)methyl]-1,4,5,6-tetrahydropyrimidin-2-yl]-3-[3-(trifluoromethyl)phenoxy]pyridazine]	2.56	90 to 100	90 to 100	–	–	90 to 100	90 to 100	90 to 100
